Reference: article PMC12756723, “Derivatives of the Cashew Nut Shell Liquid as Ligands of Pseudomonas aeruginosa Phenazine Protein D (PaPhzD)” (ACS Omega, 2025)
pKd: −log10 of the molar value. “Also recorded” adds a separate entry of the source.

Key:
P. aeruginosa = assay: Colony morphology in medium containing compounds; format: cell-based, Pseudomonas aeruginosa; details: data not shown
phzA1-G1 = assay: lacZ transcriptional fusion, phzA1-G1 operon; format: cell-based, Pseudomonas aeruginosa; details: late exponential phase
Method: (§1) P. aeruginosa harbors two identically structured operons in its genome, which encode most of the enzymes responsible for PYO synthesis (phzA1-G1 and phzA2-G2) but have slightly different regulatory regions 1. lacZ transcriptional fusions for each operon were assayed at mid-log and late exponential phases (OD=1 and 3, respectively). At mid-log cultures, the expression of both QS-regulated operons is extremely low, and it increases more than 1000-fold at late exponential phase for phzA1-G1 and 4-fold for phzA2-G2, as expected. Addition of compounds 2 and 4 had no effect for both operons in the late […]
(§2) synthesis is not related to inhibition at the transcriptional level.
(§3) Figure 7S: Effect of LDT10 (2) and LDT13 (3) on the phzA1-G1 (A) and phzA2-G2 […]
(§4) (1 picture or pasted object on this page, not shown here)

P. aeruginosa PA14 = assay: Biofilm assay (crystal violet); format: cell-based, Pseudomonas aeruginosa; details: 100 μM, vs DMSO control
Method: Exponential phase cultures of P. aeruginosa PA14 were diluted to 5 × 10^5 colony forming units (CFU) in 48-well plates with LB containing each compound (1, 3, and 5) at 100 μM final concentrations or 0.1% DMSO (v/v) as a negative control. The plate was incubated steadily at 30 °C for 20 h inside a plastic bag to avoid evaporation. After the incubation, the OD600 of each well was measured in a plate reader (SpectraMax Paradigm). The planktonic bacteria were removed by turning the plate over the waste, followed by three steps of washing with distilled water. After drying, a solution of 1% crystal violet was added to each well and incubated at room temperature for 30 min to stain the attached cells forming a ring at the air–liquid interface. The crystal violet solution was removed, and the plate was washed using the same procedure. The dye was solubilized with 30% acetic acid for 30 min at room temperature. The Abs550 was measured, and the value was divided by the OD600 for each well. A total of 24 replicates were made for each treatment (6 wells per plate, four plates)

phzA2-G2 = assay: lacZ transcriptional fusion, phzA2-G2 operon; format: cell-based, Pseudomonas aeruginosa; details: late exponential phase
Method: as §1, §2, §3, §4

PaPhzD-FITC = molecular target: T1, PaPhzD-FITC (Pseudomonas aeruginosa, UniProt P0DPB9); assay: Fluorescence binding assay with FITC-labeled PaPhzD; details: 0.32 μM FITC-labeled PaPhzD, 25 °C, 3-parameter fit; read-out: Kd
T1 construct: inferred from Ni-NTA purification with imidazole elution; made in house; host or cells: E. coli BL21(DE3)
T1 sequence (P0DPB9 whole entry): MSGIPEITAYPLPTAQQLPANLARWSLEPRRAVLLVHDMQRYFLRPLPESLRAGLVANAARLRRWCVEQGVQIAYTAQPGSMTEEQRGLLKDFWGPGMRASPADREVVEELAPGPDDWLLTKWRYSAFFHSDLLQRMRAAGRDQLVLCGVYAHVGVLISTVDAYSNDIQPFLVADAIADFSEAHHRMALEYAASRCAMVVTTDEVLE
Method: PaPhzD (2.1 mg/mL) was incubated with 6 mg/mL fluorescein isothiocyanate (FITC) (Sigma-Aldrich 46950) (1:1) for 2 h at 25 °C. Next, the reaction mixture was eluted on a Hi-Trap HP desalting column (GE Healthcare) with 2 CV of 50 mM HEPES buffer (pH 8.0). The collected fractions were quantified at two different wavelengths (280 and 495 nm), and the molar ratio (Abs495/Abs280) ranging from 0.3 to 1.0 was employed for K d calculation experiments.
Subsequently, the fluorescence intensity of 0.32 μM of FITC-labeled PaPhzD was measured on a real-time thermocycler (Applied Biosystems 7500) equipped with the filter FAN (excitation wavelength: 498 nm; emission wavelength: 530 nm) for 10 min in the presence of different concentrations of each LDT compound (ranging 0.7–100 μM), previously diluted in DMSO.
The fluorescence raw data were recorded using Applied Biosystems 7500 Software v2.0, then exported to GraphPad Prism version 9.0 software to build fluorescence intensity × concentration plots and calculate K d values of the ligands by the nonlinear regression method (3-parameter fit). All experiments were carried out in triplicate using a 96-well PCR plate, manually sealed with transparent capping strips (Flatcap strips, BioRadVR).

PaPhzD = molecular target: T2, PaPhzD (Pseudomonas aeruginosa, UniProt P0DPB9); assay: Thermal shift assay (TSA) with SYPRO Orange; format: binding
T2 construct: inferred from Ni-NTA purification with imidazole elution; made in house; host or cells: E. coli BL21(DE3)
T2 sequence (P0DPB9 whole entry): as above
Method: Thermal shift assays were performed on an Applied Biosystems 7500 RT-PCR (Applied Biosystems, Foster City, CA USA). All experiments were carried out in triplicate with 1 °C per minute increments in temperatures that range from 25 to 85 °C in 96-well PCR plates (PCR plates 96-well, BioRad), sealed with transparent capping strips (Flatcap strips, BioRad). The fluorescence of SYPRO Orange (Invitrogen S6650) was monitored (excitation wavelength, 492 nm; emission wavelength, 610 nm). Before the compounds’ screening, protein and DMSO concentrations were evaluated to improve PaPhzD stability throughout the assay.
The protein concentration required for an optimal signal-to-noise ratio (>5-fold) was evaluated by analysis of the raw fluorescence curves at different PaPhzD concentrations (1–5 μM). Then, the effect of DMSO (0–10%) over PaPhzD T m was evaluated at the optimal protein concentration. Fluorescence raw data were recorded using Applied Biosystems 7500 Software v2.0 and then processed with NAMI software to calculate T m values by the first-derivative method.
LDT compounds were screened at a final concentration of 50 μM. Briefly, 1 μL of each compound (1 mM DMSO stock solution) was added to a mixed solution containing 5 μM PaPhzD diluted in 50 mM Tris–HCl buffer (pH 8.0) containing 100 mM NaCl, 1 mM DTT, and SYPRO Orange dye (Invitrogen S6650) (1:100 dilution). Each compound was assayed in triplicate, and ΔT m values were calculated by comparison to reference wells that had 1 μL DMSO instead of the LDT compounds. Differences between T m values (ΔT m) were considered statistically significant when p < 0.01, according to the one-way ANOVA followed by Dunnett’s post-test for multiple comparisons, available in GraphPad Prism 9.0 software (GraphPad Software, San Diego, CA, USA, www.graphpad.com).
Compounds with ΔT m values statistically different from the reference were also assayed at different concentrations (ranging from 6.25 to 100 μM) to evaluate the concentration–response behavior. The ΔT m versus concentration plots were generated using the nonlinear regression method available in GraphPad Prism version 9.0.

**Q.** Which “Effect on colony morphology” value (P. aeruginosa) does the source give for `CCCCCCCCCCCCCCCc1cccc(O)c1` [Compound 2] here?
**A.** Its value is “No effects on colony morphology”.

**Q.** And the “Effect on phzA1-G1 transcription” value (phzA1-G1)?
**A.** The value was “no effect”.

**Q.** And the “Effect on biofilm formation” value (P. aeruginosa PA14)?
**A.** The value was “without affecting bacterial growth or biofilm formation; also recorded: not significantly different the control”.

**Q.** What about the “Effect on phzA2-G2 transcription” value (phzA2-G2) of the same molecule?
**A.** The value was “no effect”.

**Q.** And the pKd (PaPhzD-FITC)?
**A.** Its pKd is 5.55.

**Q.** And the “ΔTm of PaPhzD” value (PaPhzD; 50 μM compound, 5 μM PaPhzD, vs DMSO reference)?
**A.** Its value is −3.8 °C.

**Q.** What about the “Concentration–response behavior of ΔTm” value (PaPhzD; 6.25 to 100 μM) of the same molecule?
**A.** The value was “clear concentration–response behavior”.
